Experimental findings from patent US20040009973A1, “Novel potassium channels modulators” (4SC AG, priority 2002, published 2004) are described below.

This experiment addresses T1, BK potassium channel, cloned hSlo (α-hSlo and β-bSlo) in CHO cells (Homo sapiens, UniProt Q12791).
T1 construct: expressed in transfected cells; host or cells: CHO cells, permanently transfected
The experiment in a line: Em-Assay: membrane potential with voltage sensitive dye DiBAC(4)3, fluorescence plate reader. The format is cell-based. The settings on record: compound 50 μM; NS004 25 or 50 μM; hSlo transfected CHO cells; change in DiBAC(4)3 fluorescence intensity. The text has this:
The large conductance, voltage-dependent and Ca^2+-activated potassium channel BK is a potassium selective ion channel and belongs to the subfamily of KCa channels. Four BK alpha-subunits form a functional channel that can be regulated by intracellular Ca^2+ concentration, membrane voltage, and other mechanisms like phosphorylation states or beta subunits. To test the biological activity of the compounds, we applied two different techniques, a fluorescence based assay using a voltage sensitive dye (Em-Assay) as well as exploiting electrophysiological methods.
CHO cells permanently transfected with cloned hSlo (α-hSlo and β-bSlo), yielding typical BK potassium currents (Zhou et al., Pflügers Arch., 436: 725-734 (1998), were used for the evaluation of compound activity. Activation or inhibition of BK channels in these cells leads to a change of the electrochemical gradient causing a hyperpolarized or depolarised membrane potential, respectively.
To determine changes in the membrane potential of the cells we used the voltage sensitive dye DiBAC(4)3 (Molecular Probes) in a kinetic assay system using a fluorescent plate reader (Manning and Sontheimer, J. Neurosci, Meth., 91: 73-81 (1999). The anionic bis-oxonol DiBAC(4)3 is a voltage sensitive dye which partitions from the extracellular environment into the cell where it reversibly binds to intracellular proteins, a kinetic process depending on the membrane potential of the cell. At depolarised potentials (i.e. at a reduced K^+ efflux due to blocked K^+ channels) the dye accumulates in the cell leading to an increased fluorescence intensity, due to its increased fluorescence if bound to cellular proteins. At hyperpolarized potentials (i.e. at an increased K^+ efflux due to the opening of K^+ channels), the dye partitions out of the cell causing a decreased fluorescence intensity.
hSlo transfected CHO cells where maintained in DMEM supplemented with 10% FCS, 250 μg/ml Geneticin, 100 μg/ml Hygromycin, 1×HT-Supplement, and 1×Non-essential Amino Acids and cultured in a humidified CO2 incubator. After trypsination, cells where plated with a density of 5×10^4 cells per well on a clear 96-well plate and incubated for 24 h. Cells where washed once with PBS, once with PBS containing 20 mM HEPES (adjusted to pH 7.4 with NaOH) and 2 μM DIBAC(4)3 (DPBS-DiBAC solution). 180 μl of the dPBS-DiBAC solution was then added to the cells and the plate incubated for 30-60 min at 37° C. During this time the dye could partition into the cells and reach a certain steady-state distribution, depending on the resting membrane potential. Test and reference compounds were stored as DMSO stock solutions and diluted in dPBS-DiBAC solution to the desired concentration.
Fluorescence intensity (Ex.: 485 nm/Em.: 520 nm) of each well was detected in the plate reader (Fluostar, BMG) every 60 seconds. After recording the baseline fluorescence for 7 minutes, 20 μl test—and reference compounds were added and the fluorescence intensity was detected for additional 15 minutes. Background was subtracted, data values were normalized and expressed as a change in fluorescence intensity against time. The change in fluorescence intensity caused by the test compounds was evaluated, compared to the effect of the reference compound NS004, and the ratio was determined (see Table I).

T1 sequence (Q12791 1-1178 isoform Q12791-5): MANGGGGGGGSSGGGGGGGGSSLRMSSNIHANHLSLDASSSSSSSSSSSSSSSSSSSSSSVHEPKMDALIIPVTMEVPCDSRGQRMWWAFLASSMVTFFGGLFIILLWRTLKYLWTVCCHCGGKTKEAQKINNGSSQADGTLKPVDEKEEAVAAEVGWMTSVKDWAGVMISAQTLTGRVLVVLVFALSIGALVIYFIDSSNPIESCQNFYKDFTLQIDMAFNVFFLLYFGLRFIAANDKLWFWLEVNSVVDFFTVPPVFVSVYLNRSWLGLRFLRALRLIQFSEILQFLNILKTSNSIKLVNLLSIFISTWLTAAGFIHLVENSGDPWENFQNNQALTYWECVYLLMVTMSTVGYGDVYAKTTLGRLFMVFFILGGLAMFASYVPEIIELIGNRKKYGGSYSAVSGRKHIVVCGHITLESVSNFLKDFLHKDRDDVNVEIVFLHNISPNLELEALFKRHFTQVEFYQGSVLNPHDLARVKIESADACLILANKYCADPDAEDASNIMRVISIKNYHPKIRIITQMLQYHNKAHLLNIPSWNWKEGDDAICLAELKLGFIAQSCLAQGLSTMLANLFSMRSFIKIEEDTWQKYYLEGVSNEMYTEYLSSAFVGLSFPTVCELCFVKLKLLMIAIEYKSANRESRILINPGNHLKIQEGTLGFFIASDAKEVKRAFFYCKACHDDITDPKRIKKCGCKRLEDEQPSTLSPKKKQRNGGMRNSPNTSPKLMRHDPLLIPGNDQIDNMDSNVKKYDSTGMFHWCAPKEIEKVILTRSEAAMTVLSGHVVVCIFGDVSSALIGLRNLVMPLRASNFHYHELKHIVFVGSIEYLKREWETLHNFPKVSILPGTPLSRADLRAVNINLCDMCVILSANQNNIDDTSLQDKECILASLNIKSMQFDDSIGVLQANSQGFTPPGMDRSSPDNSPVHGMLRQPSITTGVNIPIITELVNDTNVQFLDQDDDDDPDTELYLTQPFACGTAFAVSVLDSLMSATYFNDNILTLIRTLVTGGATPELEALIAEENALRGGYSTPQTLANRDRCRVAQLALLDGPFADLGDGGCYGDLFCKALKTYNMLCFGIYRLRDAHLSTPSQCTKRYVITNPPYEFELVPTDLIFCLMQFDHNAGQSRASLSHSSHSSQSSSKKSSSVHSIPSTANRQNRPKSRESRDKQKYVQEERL
T1 sequence (Q28067 2-191 partner limits assumed): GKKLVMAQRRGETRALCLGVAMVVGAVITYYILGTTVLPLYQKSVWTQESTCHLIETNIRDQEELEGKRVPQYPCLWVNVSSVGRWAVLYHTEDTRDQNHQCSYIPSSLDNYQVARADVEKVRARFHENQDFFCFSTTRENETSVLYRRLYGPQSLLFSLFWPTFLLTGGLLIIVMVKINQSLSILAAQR

For `O=[N+]([O-])c1ccc(CNc2cc(NCc3ccc([N+](=O)[O-])cc3)cc(C(F)(F)F)c2)cc1` [Compound 1], the “Em effect: ratio of the compound effect compared to the maximal effect of NS004” value (from here on “Em effect: ratio of the compound effect”) was “+ (0-1 = +)”.
Take `FC(F)(F)c1cc(NCc2ccc(Br)cc2)cc(NCc2ccc(Br)cc2)c1` [Compound 2]: the “Em effect: ratio of the compound effect” value is on record as “+ (0-1 = +)”.
To `FC(F)(F)c1cc(NCc2cccc(Cl)c2)cc(NCc2cccc(Cl)c2)c1` [Compound 3] belongs “+ (0-1 = +)”.
Consider `FC(F)(F)c1cc(NCc2ccc3ccccc3c2)cc(NCc2ccc3ccccc3c2)c1` [Compound 4], for which the “Em effect: ratio of the compound effect” value is recorded as “+ (0-1 = +)”.
Consider `FC(F)(F)c1cc(NCc2ccc(Br)cc2)cc(NCc2cccc(Cl)c2)c1` [Compound 5], for which the “Em effect: ratio of the compound effect” value was “++ (>1-1.5 = ++)”.
To `O=[N+]([O-])c1ccc(CNc2cc(NCc3ccc4ccccc4c3)cc(C(F)(F)F)c2)cc1` [Compound 8] belongs “+ (0-1 = +)”.
With `c1ccc(CNc2cccc(NCc3ccccc3)c2)cc1` [Compound 9, N,N′-Dibenzylbenzene-1,3-diamine], the “Em effect: ratio of the compound effect” value is listed as “+ (0-1 = +)”.
Then `O=[N+]([O-])c1ccc(CNc2cccc(NCc3ccc([N+](=O)[O-])cc3)c2)cc1` [Compound 10], with “+ (0-1 = +)”; and `Cc1cc(NCc2ccc3ccccc3c2)ccc1NCc1ccc2ccccc2c1` [Compound 16], with “+ (0-1 = +)”.
To `Cc1cc(NCc2cccc(Cl)c2)ccc1NCc1cccc(Cl)c1` [Compound 17] belongs “+ (0-1 = +)”; to `Cc1cc(NCc2ccc(Br)cc2)ccc1NCc1ccc(Br)cc1` [Compound 18], “+ (0-1 = +)”.
To `Clc1cc(NCc2ccc(Br)cc2)ccc1NCc1ccccc1` [Compound 19] belongs “+ (0-1 = +)”.
With `Clc1cccc(CNc2ccc(NCc3ccccc3)c(Cl)c2)c1` [Compound 20, N′-Benzyl-2-chloro-N^4-(3-chlorobenzyl)-benzene-1,4-diamine], the “Em effect: ratio of the compound effect” value is “+ (0-1 = +)”.
Then `Clc1cccc(CNc2ccc(NCc3ccc(Br)cc3)c(Cl)c2)c1` [Compound 21, N^1-(4-Bromobenzyl)-2-chloro-N^4-(3-chlorobenzyl)-benzene-1,4-diamine], with “+ (0-1 = +)”; and `Clc1cccc(CNc2ccc(NCc3ccc4ccccc4c3)c(Cl)c2)c1` [Compound 22], with “+ (0-1 = +)”.
With `O=[N+]([O-])c1ccc(CNc2ccc(NCc3ccc(Br)cc3)cc2Cl)cc1` [Compound 23], the “Em effect: ratio of the compound effect” value is reported as “+ (0-1 = +)”.
Then `O=[N+]([O-])c1ccc(CNc2ccc(NCc3cccc(Cl)c3)cc2Cl)cc1` [Compound 24], with “+ (0-1 = +)”; and `O=[N+]([O-])c1ccc(CNc2ccc(NCc3ccc4ccccc4c3)cc2Cl)cc1` [Compound 25], with “+ (0-1 = +)”.
As for `Fc1ccc(CNc2cccc(NCc3ccc(F)cc3)c2)cc1` [Compound 26, N,N′-bis-(4-fluorobenzyl)-benzene-1,3-diamine], the “Em effect: ratio of the compound effect” value is “+ (0-1 = +)”.
With `Fc1cc(F)cc(CNc2cccc(NCc3cc(F)cc(F)c3)c2)c1` [Compound 27, N,N′-bis-(3,5-difluorobenzyl)-benzene-1,3-diamine], the “Em effect: ratio of the compound effect” value is on record as “++ (>1-1.5 = ++)”.
With `Fc1ccc(CNc2cccc(NCc3ccc(F)cc3F)c2)c(F)c1` [Compound 28, N,N′-bis-(2,4-difluorobenzyl)-benzene-1,3-diamine], the “Em effect: ratio of the compound effect” value was “++ (>1-1.5 = ++)”.
On to `Fc1cccc(Cl)c1CNc1cccc(NCc2c(F)cccc2Cl)c1` [Compound 29], for which the “Em effect: ratio of the compound effect” value is “+ (0-1 = +)”.
Take `N#Cc1ccccc1-c1ccc(CNc2cccc(NCc3ccc(-c4ccccc4C#N)cc3)c2)cc1` [Compound 30]: the “Em effect: ratio of the compound effect” value is on record as “+ (0-1 = +)”.
Regarding `Clc1ccccc1CNc1cccc(NCc2ccccc2Cl)c1` [Compound 32], the “Em effect: ratio of the compound effect” value is listed as “+ (0-1 = +)”.
Then `COc1cccc(CNc2cccc(NCc3cccc(OC)c3)c2)c1` [Compound 33], with “+ (0-1 = +)”; and `Fc1cccc(F)c1CNc1cccc(NCc2c(F)cccc2F)c1` [Compound 34, N,N′-bis-(2,6-difluorobenzyl)-benzene-1,3-diamine], with “+ (0-1 = +)”; and `CC(C)(C)c1ccc(CNc2cccc(NCc3ccc(C(C)(C)C)cc3)c2)cc1` [Compound 36, N,N′-bis-(4-tert-butylbenzyl)-benzene-1,3-diamine], with “++ (>1-1.5 = ++)”.
Then `Fc1ccc(CNc2cccc(NCc3ccc(F)cc3Cl)c2)c(Cl)c1` [Compound 37, N,N′-bis-(2-chloro-4-fluorobenzyl)-benzene-1,3-diamine], with “++ (>1-1.5 = ++)”; and `FC(F)(F)c1ccccc1CNc1cccc(NCc2ccccc2C(F)(F)F)c1` [Compound 39], with “++ (>1-1.5 = ++)”.
To `CC(C)(C)c1ccc(CNc2cccc(NCc3csc4ccc(Cl)cc34)c2)cc1` [Compound 40] belongs “+ (0-1 = +)”; to `CC(C)(C)c1ccc(CNc2cccc(NCc3ccc(-c4csnn4)cc3)c2)cc1` [Compound 41], “+ (0-1 = +)”.
For `CC(C)(C)c1ccc(CNc2cccc(NCc3cccc(Cl)c3)c2)cc1` [Compound 42, N-(4tert-butylbenzyl)-N′-(3-chloro-benzyl)-benzene-1,3-diamine], the “Em effect: ratio of the compound effect” value is “+ (0-1 = +)”.
To `CC(C)(C)c1ccc(CNc2cccc(NCc3ccc(S(C)(=O)=O)cc3)c2)cc1` [Compound 43, N-(4-tert-butylbenzyl)-N′-(4-methanesulfonylbenzyl)-benzene-1,3-diamine] belongs “+ (0-1 = +)”; to `Fc1cccc(CNc2cccc(NCc3ccc(-c4csnn4)cc3)c2)c1` [Compound 44, N-(3-fluoro-benzyl)-N′-(4-[1,2,3]thiadiazol-4-yl-benzyl)-benzene-1,3-diamine], “+ (0-1 = +)”; to `CS(=O)(=O)c1ccc(CNc2cccc(NCc3cccc(F)c3)c2)cc1` [Compound 45], “+ (0-1 = +)”.
Then `O=[N+]([O-])c1ccc(CNc2cccc(NCc3ccc(F)cc3)c2)o1` [Compound 46], with “++ (>1-1.5 = ++)”; and `Clc1cccc(CNc2cccc(NCc3ccccc3Cl)c2)c1` [Compound 47], with “++ (>1-1.5 = ++)”.
To `Fc1cccc(CNc2cccc(NCc3ccccc3Cl)c2)c1` [Compound 48] belongs “+ (0-1 = +)”.
